Measurements taken from patent US20110178104A1, “Anti-Heparin Compounds” (POLYMEDIX INC., priority 2010, published 2011).
pEC50: −log10 of the molar value. Values after ≈ are worked out from the molar mass of the structure shown. Values joined by “and” are separate entries in the source; they are usually repeats but may differ in a detail not shown here. Equal entries are not always repeated. Where two headings read alike, the source gives them in different places. Starred links: 1 amine or outer side, 2 acyl side, 3 side chain; linkers in the order of their positions; H or OH if unused. Non-standard residues stand in square brackets, D forms with d. Residues, ends and D or L forms follow the SMILES beside them. *: point of attachment. NH(3-CONH2-4-OMe-phenyl) = COc1ccc(N*)cc1C(N)=O; 3Abz(6-OMe) = COc1ccc(N[*:1])cc1C(=O)[*:2]; X1 = O=C(O)COc1ccc(N[*:1])cc1C(=O)[*:2]

What was measured:
[1] = tested on: isolated human erythrocytes; assay: cells; type: cell-based; conditions: Homo sapiens, Erythrocyte, 1 h, read-out: Hemolysis EC50
Description: Hemolysis assay: Cytotoxicity was also evaluated in a hemolysis assay using isolated human erythrocytes. Pooled whole human blood was centrifuged to separate the red blood cells (RBC). The isolated RBCs were rinsed and diluted in Tris-buffered saline (TBS buffer, pH 7.4) to obtain a 0.22% RBC stock suspension. Serial two-fold dilutions of test agent were assayed over a concentration range of 1000 to 0.48 μg/ml with shaking for 1 hour at 37° C. At the conclusion of the incubation time, samples were centrifuged and 30 μl of the supernatant was added to 100 μl H2O. OD405 measurements were read for hemoglobin concentration. The bee venom peptide melittin was used as a positive control. EC50 values were determined using a four parameter logistic equation: Y=Bottom+(Top-Bottom)/(1+10̂((LogEC50-X)*HillSlope)).

[2] = Cytotoxicity colorimetric assay, HepG2; type: cell-based, human; conditions: human, HepG2 cells, one hour in serum-free media
Description: (§1) This assay measures the bioreduction of a novel tetrazolium compound to a soluble formazan product by viable cells. HepG2 cells were seeded in 96 well plates at 3×10^4 cells/well in MEM medium with 10% fetal bovine serum (FBS) 24 hours prior to use. NIH/3T3 cells were seeded in 96 well plates at 2×10^4 cells/well in DMEM medium with 10% bovine calf serum (BCS) 24 hours prior to use. Cell monolayers were rinsed in serum-free media and incubated for one hour with test agent in serum-free media. After incubation, the media was replaced with serum supplemented media and live cells were measured using the Cell Titer 96 Aqueous […] Assay kit (Promega, Madison, Wis.). EC50 values were determined using a four parameter logistic equation: Y=Bottom+(Top-Bottom)/(1+10̂((LogEC50-X)*HillSlope)).

[3] = Cytotoxicity colorimetric assay, NIH/3T3; type: cell-based, mouse; conditions: mouse, NIH/3T3 cells, one hour in serum-free media
Description: as §1

[4] = tested on: Unfractionated heparin; assay: aPTT clotting assay, UFH 0.4 U/mL in plasma (Example 10); type: biochemical; conditions: unfractionated heparin 0.4 U/mL in plasma; aPTT clotting
Description: aPTT clotting Assay: Unfractionated heparin was mixed with plasma at a final concentration of 0.4 U/mL (or concentration which increases aPTT time to between 120 and 300 seconds). […] The ACL Elite Hemostasis analyzer (Beckman Coulter™) was used to add aPTT reagent (HemosIL SynthASil) to supplemented plasma. Clotting was initiated by addition of CaCl2 and time to clot was recorded.

[5] = tested on: enoxaparin; assay: FXa amidolytic assay (Example 10), enoxaparin; conditions: read-out: Enox FXa EC50; enoxaparin 0.1 ug/ml; human antithrombin, bovine Factor Xa
[6] = tested on: tinzaparin; assay: FXa amidolytic assay (Example 10), tinzaparin; conditions: read-out: Tinzap FXa EC50; tinzaparin 0.1 ug/ml; human antithrombin, bovine Factor Xa
[7] = tested on: fondaparinux; assay: FXa amidolytic assay (Example 10), fondaparinux; conditions: for pEC50: read-out: Fondap FXa EC50, fondaparinux 0.02 μg/mL, human antithrombin, bovine Factor Xa
[8] = tested on: UFH; assay: FXa amidolytic assay (Example 10), UFH; conditions: read-out: Heparin FXa uM EC50; UFH 0.03 units/mL; human antithrombin, bovine Factor Xa

| SMILES | pEC50 [4] | pEC50 [5] | pEC50 [6] | pEC50 [7] | EC50 [8] [µM] | EC50 ([1]; human RBC, 1 hour at 37° C.) [µg/mL] | EC50 at 1 h [2] [µg/mL] | EC50 at 1 h [3] [µg/mL] | Potent LMWH-antagonists with superior anti-fondaparinux activity (summary) [7] | EC50 [1] [µg/mL] |
| --- | --- | --- | --- | --- | --- | --- | --- | --- | --- | --- |
| COc1cc(OC)c(C(=O)N[C@H]2CC[C@H](NC(=O)c3cccc(C(=O)N[C@H]4CC[C@H](NC(=O)c5cc(C(=O)NCCN)c(OC)cc5OC)CC4)n3)CC2)cc1C(=O)NCCN [Compound 397] | 5.94 | 6.01 | 6.02 | 5.58 | – | > 1000 | 616 (≈ 717 µM) | 408 (≈ 475 µM) | – | – |
| COc1ccc(NC(=O)[C@@H](CCCNC(=N)N)NC(=O)c2cc(NC(=O)[C@@H](CCCNC(=N)N)NC(=O)c3cc(NC(=O)[C@@H](CCCNC(=N)N)NC(=O)c4cc(NC(C)=O)ccc4OC)ccc3OC)ccc2OCC(=O)O)cc1C(=O)N[C@H](Cc1c[nH]c2ccccc12)C(=O)O [Compound 306] | < 5.00 | 6.70 and 6.47 | 6.70 and 6.44 | – | 0.236 | ~1000 (≈ 738 µM) | ~1000 (≈ 738 µM) | – | – | – |
| COc1cc(OC)c(C(=O)Nc2ccc(NC(=O)c3ccc(OCCCCCN)cc3OCCCCCN)cc2)cc1C(=O)Nc1ccc(NC(=O)c2ccc(OCCCCCN)cc2OCCCCCN)cc1 [Compound 411] | 5.94 | 7.02 | 6.91 | 7.21 | – | > 1000 | 590 (≈ 579 µM) | 86 (≈ 84.4 µM) | superior anti-fondaparinux activity | – |
| COc1ccc(NC(=O)[C@@H](CCCNC(N)=O)NC(=O)c2cc(NC(=O)[C@@H](CCCNC(=N)N)NC(=O)c3cc(NC(=O)[C@@H](CCCNC(=N)N)NC(=O)c4cc(NC(C)=O)ccc4OC)ccc3OC)ccc2OCC(=O)O)cc1C(=O)N[C@H](Cc1c[nH]c2ccccc12)C(N)=O [Compound 332] | < 5.00 | < 5.30 | < 5.30 | < 5.30 | > 5 | 1000 (≈ 738 µM) | – | – | – | – |
| COc1cc(OC)c(C(=O)N[C@H]2CC[C@H](NC(=O)c3cc(C(=O)N[C@H]4CC[C@H](NC(=O)c5cc(C(=O)NCCN)c(OC)cc5OC)CC4)c(OCC(N)=O)cc3OC)CC2)cc1C(=O)NCCN [Compound 390] | 5.68 | 6.15 | 6.15 | 5.89 | – | > 1000 | 892 (≈ 927 µM) | 986 (≈ 1020 µM) | – | – |
| COc1ccc(NC(=O)[C@H](CCCCN)NC(=O)c2cc(NC(=O)[C@H](CCCCN)NC(=O)c3cc(NC(=O)[C@H](CCCCN)NC(=O)c4cc(NC(=O)[C@H](CCCCN)NC(=O)[C@@H](N)Cc5ccccc5)ccc4OC)ccc3OC)ccc2OC)cc1C(N)=O [Compound 357] (H-FK[3Abz(6-OMe)]K[3Abz(6-OMe)]K[3Abz(6-OMe)]K-{NH(3-CONH2-4-OMe-phenyl)}) | 5.85 | 6.61 | 6.93 | 5.65 | 0.187 | > 1000 | – | – | – | – |
| COc1cc(OC)c(C(=O)N[C@H]2CC[C@@H](NC(=O)c3cc(C(=O)N[C@H]4CC[C@@H](NC(=O)c5cc(C(=O)NCCCN)c(OC)cc5OC)CC4)c(OC)cc3OC)CC2)cc1C(=O)NCCCN [Compound 404] | 5.59 | 6.46 | 6.35 | 6.49 | – | – | > 1000 | 1100 (≈ 1160 µM) | – | – |
| COc1ccc(NC(=O)[C@H](CCCCN)NC(=O)c2cc(NC(=O)[C@H](CCCCN)NC(=O)c3cc(NC(=O)[C@H](CCCCN)NC(=O)c4cc(NC(=O)[C@@H](N)CCCCN)ccc4OC)ccc3OC)ccc2OC)cc1C(=O)O [Compound 250] | 5.56 | 5.48 | 5.89 | < 5.00 | – | – | > 1000 | > 1000 | – | – |
| COc1cc(OC)c(C(=O)N[C@H]2CC[C@H](NC(=O)c3cncc(C(=O)N[C@H]4CC[C@H](NC(=O)c5cc(C(=O)NCCN)c(OC)cc5OC)CC4)c3)CC2)cc1C(=O)NCCN [Compound 400] | 5.29 | 5.91 | 5.93 | 5.26 | – | > 1000 | 1300 (≈ 1520 µM) | > 1000 | – | – |
| COc1cc(OC)c(C(=O)N[C@H]2CC[C@H](NC(=O)c3cc(C(=O)N[C@H]4CC[C@H](NC(=O)c5cc(C(=O)NCCCN)c(OC)cc5OC)CC4)c(OC)cc3OC)CC2)cc1C(=O)NCCCN [Compound 406] | 5.61 | 6.52 | 6.36 | 6.95 | – | 12.1 (≈ 12.8 µM) | 209 (≈ 220 µM) | 215 (≈ 227 µM) | – | – |
| COc1cc(OC)c(C(=O)Nc2ccc(NC(=O)c3cc(C(=O)NCCN(C)C)c(OCCCCCN)cc3OCCCCCN)cc2)cc1C(=O)Nc1ccc(NC(=O)c2cc(C(=O)NCCN(C)C)c(OCCCCCN)cc2OCCCCCN)cc1 [Compound 410] | 6.19 | 7.25 | 7.17 | 7.39 | – | – | 250 (≈ 200 µM) | 97.5 (≈ 78.1 µM) | – | > 1000 |
| COc1cc(OC)c(C(=O)NC2CCC(NC(=O)c3cc(C(=O)NCCN)c(OC)cc3OC)CC2)cc1C(=O)O (stereo not shown) [Compound 347] | < 5.00 | < 5.30 | < 5.30 | < 5.00 | > 20 | – | > 1000 | > 1000 | – | – |

More lines, main results first:

| pEC50 [4] | pEC50 [5] | pEC50 [6] | pEC50 [7] | EC50 [8] [µM] | SMILES | EC50 ([1]; human RBC, 1 hour at 37° C.) [µg/mL] | EC50 at 1 h [2] [µg/mL] | EC50 at 1 h [3] [µg/mL] | Potent LMWH-antagonists with superior anti-fondaparinux activity (summary) [7] | EC50 [1] [µg/mL] |
| --- | --- | --- | --- | --- | --- | --- | --- | --- | --- | --- |
| 5.32 | 5.60 | 5.69 | 4.86 | – | COc1cc(OC)c(C(=O)N[C@H]2CC[C@H](NC(=O)c3cccc(C(=O)N[C@H]4CC[C@H](NC(=O)c5cc(C(=O)NCCN)c(OC)cc5OC)CC4)c3)CC2)cc1C(=O)NCCN [Compound 398] | > 1000 | 1090 (≈ 1270 µM) | > 1000 | – | – |
| 5.71 | 6.67 | 6.94 | 5.96 | 0.194 | COc1ccc(NC(=O)[C@H](CCCCN)NC(=O)c2cc(NC(=O)[C@H](CCCCN)NC(=O)c3cc(NC(=O)[C@H](CCCCN)NC(=O)c4cc(NC(=O)[C@H](CCCCN)NC(=O)[C@@H](N)Cc5c[nH]c6ccccc56)ccc4OC)ccc3OC)ccc2OC)cc1C(N)=O [Compound 351] (H-WK[3Abz(6-OMe)]K[3Abz(6-OMe)]K[3Abz(6-OMe)]K-{NH(3-CONH2-4-OMe-phenyl)}) | > 1000 | – | – | – | – |
| 5.71 | 6.49 | 6.74 | 5.80 | 0.314 | COc1ccc(NC(=O)[C@H](CCCCN)NC(=O)c2cc(NC(=O)[C@H](CCCCN)NC(=O)c3cc(NC(=O)[C@H](CCCCN)NC(=O)c4cc(NC(=O)[C@H](CCCCN)NC(=O)[C@@H](N)Cc5ccccc5)ccc4OC)ccc3OC)ccc2OCC(=O)O)cc1C(N)=O [Compound 358] (H-FK[3Abz(6-OMe)]K[3Abz(6-OMe)]K[X1]K-{NH(3-CONH2-4-OMe-phenyl)}) | > 1000 | – | – | – | – |
| < 5.00 | < 5.30 | < 5.30 | < 5.30 | > 5 | COc1ccc(NC(=O)[C@@H](CCCNC(N)=O)NC(=O)c2cc(NC(=O)[C@@H](CCCNC(N)=O)NC(=O)c3cc(NC(=O)[C@@H](CCCNC(=N)N)NC(=O)c4cc(NC(C)=O)ccc4OC)ccc3OC)ccc2OCC(=O)O)cc1C(=O)N[C@H](Cc1c[nH]c2ccccc12)C(N)=O [Compound 333] | 1000 (≈ 737 µM) | – | – | – | – |
| 5.73 and 5.64 | 6.67 and 6.68 | 6.78 and 6.79 | 6.23 and 6.49 | – | COc1ccc(NC(=O)[C@@H](CCCNC(=N)N)NC(=O)c2cc(NC(=O)[C@@H](CCCNC(=N)N)NC(=O)c3cc(NC(=O)[C@@H](CCCNC(=N)N)NC(=O)c4cc(NC(C)=O)ccc4OC)ccc3OC)ccc2OC)cc1C(N)=O [Compound 229] | ~500 (≈ 445 µM) | > 1000 | – | – | – |
| 5.26 | 5.24 | 5.50 | 5.23 | – | COc1cc(OC)c(C(=O)N[C@H]2CC[C@H](NC(=O)c3cc(C(=O)N[C@H]4CC[C@H](NC(=O)c5cc(C(=O)NCCN)c(OC)cc5OC)CC4)ncn3)CC2)cc1C(=O)NCCN [Compound 402] | > 1000 | 864 (≈ 1000 µM) | 753 (≈ 875 µM) | – | – |
